Reference: patent publication US10669268B2, “Bicyclic derivatives” (Hoffmann-La Roche Inc., priority 2012, dated 2020)
pIC50: −log10 of the molar value.

Molecular target: ATX (human His-tagged) (Homo sapiens (Human), UniProt Q13822)
Assay: Human ATX enzyme inhibition assay (fluorescence quenching, MR121 substrate)
Type: biochemical
Settings: 30 nM ATX, 1 μM MR121 substrate, 30° C., pH 8.0
Outline: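 Fluorescence-quenching assay using MR121 substrate at 1 μM final, incubated 15 min at 30 °C. Buffer was 50 mM Tris-HCl pH 8.0 with 140 mM NaCl, 5 mM KCl, 1 mM CaCl2, 1 mM MgCl2 and 0.01% Triton X-100.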

| Compound | pIC50 |
| --- | --- |
| O=C(c1cc2ccccc2c(OCC(F)(F)F)n1)N1C[C@@H]2CN(C(=O)[C@@H]3CCc4[nH]nnc4C3)C[C@H]2C1 [Example 19.28, [(3aS,6aS)-5-[(5R)-4,5,6,7-tetrahydro-1H-benzotriazole-5-carbonyl]-1,3,3a,4,6,6a-hexahydropyrrolo[3,4-c]pyrrol-2-yl]-[1-(2,2,2-trifluoroethoxy)isoquinolin-3-yl]methanone] | 8.70 |
| CC(C)(C)c1cc(Br)ccc1OCC(=O)N1C[C@@H]2CN(C(=O)[C@@H]3CCc4[nH]nnc4C3)C[C@H]2C1 [Example 19.29, 1-[(3aS,6aS)-5-[(5R)-4,5,6,7-tetrahydro-1H-benzotriazole-5-carbonyl]-1,3,3a,4,6,6a-hexahydropyrrolo[3,4-c]pyrrol-2-yl]-2-(4-bromo-2-tert-butylphenoxy)ethanone] | 9.00 |
| CC(C)(C)c1cc(Br)ccc1OCC(=O)N1C[C@@H]2CN(C(=O)c3ccc4[nH]nnc4c3)C[C@H]2C1 [Example 19.30, 1-[(3aS,6aS)-5-(1H-benzotriazole-5-carbonyl)-1,3,3a,4,6,6a-hexahydropyrrolo[3,4-c]pyrrol-2-yl]-2-(4-bromo-2-tert-butylphenoxy)ethanone] | 8.30 |
| CC(C)(C)c1cc(C#N)ccc1OCC(=O)N1C[C@@H]2CN(C(=O)[C@@H]3CCc4[nH]nnc4C3)C[C@H]2C1 [Example 19.31, 4-[2-[(3aS,6aS)-5-[(5R)-4,5,6,7-tetrahydro-1H-benzotriazole-5-carbonyl]-1,3,3a,4,6,6a-hexahydropyrrolo[3,4-c]pyrrol-2-yl]-2-oxoethoxy]-3-tert-butylbenzonitrile] | 8.70 |
| O=C(COc1ccc(OC(F)(F)F)cc1)N1C[C@@H]2CN(C(=O)[C@@H]3CCc4[nH]nnc4C3)C[C@H]2C1 [Example 19.34, 1-[(3aS,6aS)-5-[(5R)-4,5,6,7-tetrahydro-1H-benzotriazole-5-carbonyl]-1,3,3a,4,6,6a-hexahydropyrrolo[3,4-c]pyrrol-2-yl]-2-[4-(trifluoromethoxy)phenoxy]ethanone] | 8.52 |
| CCOc1nc(C(=O)N2C[C@@H]3CN(C(=O)[C@@H]4CCc5[nH]nnc5C4)C[C@H]3C2)cc2ccccc12 [Example 19.35, [(3aS,6aS)-5-[(5R)-4,5,6,7-tetrahydro-1H-benzotriazole-5-carbonyl]-1,3,3a,4,6,6a-hexahydropyrrolo[3,4-c]pyrrol-2-yl]-(1-ethoxyisoquinolin-3-yl)methanone] | 8.70 |
| CCOc1cc(C(=O)N2C[C@@H]3CN(C(=O)c4ccc5[nH]nnc5c4)C[C@H]3C2)nc2ccccc12 [Example 19.37, ((3aS,6aS)-5-(1H-benzo[d][1,2,3]triazole-5-carbonyl)hexahydropyrrolo[3,4-c]pyrrol-2(1H)-yl)(4-ethoxyquinolin-2-yl)methanone] | 7.82 |
| O=C(c1ccc2[nH]nnc2c1)N1C[C@H]2CN(C(=O)c3cc(OCC(F)(F)F)c4ccccc4n3)C[C@@H]2C1 [Example 19.38, ((3aS,6aS)-5-(1H-benzo[d][1,2,3]triazole-5-carbonyl)hexahydropyrrolo[3,4-c]pyrrol-2(1H)-yl)(4-(2,2,2-trifluoroethoxy)quinolin-2-yl)methanone] | 8.30 |
| O=C(c1cnc(OC2CCC2)c(C(F)(F)F)c1)N1C[C@@H]2CN(C(=O)c3ccc4[nH]nnc4c3)C[C@H]2C1 [Example 19.39, ((3aS,6aS)-5-(1H-benzo[d][1,2,3]triazole-5-carbonyl)hexahydropyrrolo[3,4-c]pyrrol-2(1H)-yl)(6-cyclobutoxy-5-(trifluoromethyl)pyridin-3-yl)methanone] | 8.15 |
| COCCOc1ncc(C(=O)N2C[C@@H]3CN(C(=O)c4ccc5[nH]nnc5c4)C[C@H]3C2)cc1Br [Example 19.40, ((3aS,6aS)-5-(1H-benzo[d][1,2,3]triazole-5-carbonyl)hexahydropyrrolo[3,4-c]pyrrol-2(1H)-yl)(5-bromo-6-(2-methoxyethoxy)pyridin-3-yl)methanone] | 7.00 |
| O=C(c1cnc(OCC2CC2)c(Br)c1)N1C[C@@H]2CN(C(=O)c3ccc4[nH]nnc4c3)C[C@H]2C1 [Example 19.41, ((3aS,6aS)-5-(1H-benzo[d][1,2,3]triazole-5-carbonyl)hexahydropyrrolo[3,4-c]pyrrol-2(1H)-yl)(5-bromo-6-(cyclopropylmethoxy)pyridin-3-yl)methanone] | 6.16 |
| O=C(c1cnc(OCC(F)(F)F)c(C2CC2)c1)N1C[C@@H]2CN(C(=O)c3ccc4[nH]nnc4c3)C[C@H]2C1 [Example 19.42, ((3aS,6aS)-5-(1H-benzo[d][1,2,3]triazole-5-carbonyl)hexahydropyrrolo[3,4-c]pyrrol-2(1H)-yl)(5-cyclopropyl-6-(2,2,2-trifluoroethoxy)pyridin-3-yl)methanone] | 8.00 |
| O=C(c1cnc(OCC(F)(F)F)c(C(F)(F)F)c1)N1C[C@@H]2CN(C(=O)c3ccc4[nH]nnc4c3)C[C@H]2C1 [Example 19.43, ((3aS,6aS)-5-(1H-benzo[d][1,2,3]triazole-5-carbonyl)hexahydropyrrolo[3,4-c]pyrrol-2(1H)-yl)(6-(2,2,2-trifluoroethoxy)-5-(trifluoromethyl)pyridin-3-yl)methanone] | 7.85 |
| O=C(c1ccc2[nH]nnc2c1)N1C[C@H]2CN(C(=O)N3CCC(c4ccc(Cl)cc4)CC3)C[C@@H]2C1 [Example 20, (1H-Benzotriazol-5-yl)-{(3aS,6aS)-5-[4-(4-chloro-phenyl)-piperidine-1-carbonyl]-hexahydro-pyrrolo[3,4-c]pyrrol-2-yl}-methanone] | 7.54 |
| O=C(c1ccc2[nH]nnc2c1)N1C[C@H]2CN(C(=O)N3CCN(c4ccc(Cl)cc4)CC3)C[C@@H]2C1 [Example 20.01, (1H-benzotriazol-5-yl)-{(3aS,6aS)-5-[4-(4-chloro-phenyl)-piperazine-1-carbonyl]-hexahydro-pyrrolo[3,4-c]pyrrol-2-yl}-methanone] | 6.52 |
